We go through six molecules from ChEMBL document CHEMBL3585324, “Suncheonosides A-D, Benzothioate Glycosides from a Marine-Derived Streptomyces sp” (J Nat Prod, 2015).

Data set [1] in a line: (§1) Antidiabetic activity against IDX medium-treated human bone marrow mesenchymal stem cells assessed as induction of adipogenesis at 10 uM after 6 days by oil red o/hematoxylin staining-based inverted-phase microscopic analysis relative to IDX medium-treated control. In kind it is functional, Mesenchymal stem cell.
The nature of data set [2]: Cytotoxicity against human bone marrow mesenchymal stem cells assessed as cell viability up to 100 uM after 48 hrs by WST-1 assay. In kind it is cell-based.
Data set [3] concerns Mesenchymal stem cell. The experiment in a line: Antidiabetic activity against IDX medium-treated human bone marrow mesenchymal stem cells assessed as induction of adiponectin production during adipogenesis after 6 days by ELISA. In kind it is functional.
Data set [4] in a line: Antidiabetic activity against IDX medium-treated human bone marrow mesenchymal stem cells assessed as induction of adiponectin production during adipogenesis after 6 days by ELISA relative to glibenclamide. It is filed as functional, Mesenchymal stem cell.
The subject of data set [5] is Mesenchymal stem cell. The description is as §1. It is filed as functional.
In data set [6] the test system is Mesenchymal stem cell. The experiment in a line: Antidiabetic activity against IDX medium-treated human bone marrow mesenchymal stem cells assessed as induction of adiponectin production during adipogenesis at 60 to 100 uM after 6 days by ELISA relative to IDX medium-treated control. In kind it is functional.

Active and inactive are the calls of the source. The calls are words filed in the database; no cut-off is given here.

Consider `COc1c(C)c(O[C@@H]2O[C@@H](C)[C@H](O)[C@@H](O)[C@H]2O)c(C(=O)SC)c(C(C)C)c1C`, for which the Activity in data set [1] was 65%; in data set [2], “Non-toxic”; in data set [3] it was “Dose-dependent effect”. In addition, the “%max” value in data set [4] is given as 47%.
Consider `CSC(=O)c1c(O[C@@H]2O[C@@H](C)[C@H](O)[C@@H](O)[C@H]2O)c(C)c(O[C@@H]2O[C@@H](C)[C@H](O)[C@@H](O)[C@H]2O)c(C)c1C(C)C`, for which the values for the Activity in data set [1], in data set [2] and in data set [3] were 75%, “Non-toxic” and “Dose-dependent effect”, respectively. The “%max” value in data set [4] is on record as 38%.
Regarding `COc1c(C)c(O[C@@H]2O[C@@H](C)[C@H](O)[C@@H](O)[C@H]2O)c(C)c(C(C)C)c1C(=O)SC`, the result in data set [5] was Active.
With `COc1ccc(Cl)cc1C(=O)NCCc1ccc(S(=O)(=O)NC(=O)NC2CCCCC2)cc1`, the Activity entry in data set [3] was “Dose-dependent effect”.
In the case of `CSC(=O)c1c(O[C@@H]2O[C@@H](C)[C@H](O)[C@@H](O)[C@H]2O)c(C)c(O)c(C)c1C(C)C`, the Activity in data set [1] was 107%; in data set [2], “Non-toxic”; in data set [3] it was “Dose-dependent effect”. In data set [4], the “%max” value came out at 44%.
On to `CSC(=O)c1c(O)c(C)c(O)c(C)c1C(C)C`, for which the Activity result in data set [2] was “Non-toxic”. Besides, in data set [6], the result was inactive.
